The text below walks through data of article PMC12845239, “Development of Novel Proline- and Pipecolic Acid-Based Allosteric Inhibitors of Dengue and Zika Virus NS2B/NS3 Protease” (Pharmaceuticals, 2025).

The target in assay [1] is ZIKV NS2B/NS3 (Zika virus, UniProt A0A024B7W1, R1467A/R1531G). Put plainly: ZIKV protease relative inhibition assay (fluorometric, Bz-Nle-Lys-Arg-Arg-AMC 10 µM). The assay is classed as biochemical. The settings on record: 50 µM inhibitor, ZIKV protease 10 nM, substrate 10 µM.
Assay [2] concerns the target T1, DENV NS2B/NS3 (Dengue virus type 2, UniProt P29990).
T1 construct: the hydrophilic 40-residue core domain of NS2B (NS2B(H)-NS3pro); The used DENV protease construct contains the protease domain of NS3
Kind of assay: biochemical. The settings on record: for inhibition at 50 µM: read-out: DENV % inhibition at 50 µM; for inhibition at 50 µM / DENV % inhibition at 50 µM: 50 µM inhibitor, DENV-2 protease 100 nM, substrate 50 µM.

Assay [3] has as its target DENV-2 NS2B-NS3 protease (Dengue virus type 2, UniProt P29990). Put plainly: DENV2 Reporter Gene Assay (DENV2proHeLa). The assay is classed as cell-based. The settings on record: for inhibition at 25 µM: M-HeLa, read-out: DENV2 proHeLa % inhibition at 25 µM; for EC50: read-out: DENV2 proHeLa EC50. Here is the method: The DENV2proHeLa assay was performed as published previously. Stable cells were seeded into 96-well plates with a density of 2 × 10^4 cells per well and treated immediately with inhibitors of the DENV protease in a final volume of 100 μL. After incubation for 24 h at 37 °C, the medium was removed, and cells were lysed by adding 25 μL of lysis buffer (Promega) for 15 min at room temperature. Luciferase activity was recorded using a FLUOstar omega plate reader (BMG Labtech, Ortenberg, Germany) with injections of 100 μL per well of coelenterazine (2.75 μM in PBS). Luminescence was recorded for 5 s. Each concentration was assayed in triplicate. The percentage of inhibition was calculated in relation to the untreated control. For EC50 calculations, data were fitted and calculated with Prism 6.1 (GraphPad Software, Inc., San Diego, CA, USA) using a 4-parameter nonlinear dose-response curve with background subtraction (wells without cells).
In general terms: In a reporter assay the amount or activity of a reporter protein is the signal.

In assay [4] the test system is serine protease of ZIKV. The settings on record: cited from earlier work.
The subject of assay [5] is serine protease of DENV. Further details: method as in PMID 31769670. The settings on record: cited from earlier work.
[6] abbreviates: 25 µM, HeLa reporter cells, 24 h.

Where two headings read alike, the source gives them in different places.

Chain of DENV-2 NS2B-NS3 protease (P29990 1346-1653): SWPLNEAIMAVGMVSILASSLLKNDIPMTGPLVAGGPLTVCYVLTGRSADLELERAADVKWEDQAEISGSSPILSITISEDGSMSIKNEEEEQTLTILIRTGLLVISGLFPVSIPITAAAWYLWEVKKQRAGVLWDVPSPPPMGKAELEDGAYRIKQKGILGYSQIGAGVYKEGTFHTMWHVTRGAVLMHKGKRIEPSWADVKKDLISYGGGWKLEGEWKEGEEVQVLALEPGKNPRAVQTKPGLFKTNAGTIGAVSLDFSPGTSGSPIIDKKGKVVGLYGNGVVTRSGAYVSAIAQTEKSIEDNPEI
T1 sequence (P29990 1398-1437): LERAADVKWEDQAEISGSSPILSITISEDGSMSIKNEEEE
T1 sequence (P29990 1476-1653): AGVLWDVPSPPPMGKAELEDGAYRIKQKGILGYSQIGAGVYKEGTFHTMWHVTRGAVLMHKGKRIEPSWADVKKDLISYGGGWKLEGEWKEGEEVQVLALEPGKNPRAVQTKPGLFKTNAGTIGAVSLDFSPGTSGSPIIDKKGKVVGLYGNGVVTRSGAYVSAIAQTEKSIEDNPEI

One may read the IC50 as the point on the concentration scale where inhibition reaches its midpoint. The term inhibition denotes the share of the control response that was lost under treatment. As for `O=C(Nc1nc2cc(O)c(O)cc2s1)[C@H]1CCCCN1S(=O)(=O)c1ccccc1C(F)(F)F` [Compound 23, (R)-N-(5,6-Dihydroxybenzo[d]thiazol-2-yl)-1-((2-(trifluoromethyl)phenyl)sulfonyl)piperidine-2-carboxamide], in assay [1], the “ZIKV % inhibition at 50 µM” value turned out to be 36.2%. The compound also registered an IC50 in assay [2] of 41.8 ± 2.2 µM. In assay [3] (setting [6]), the inhibition at 25 µM amounted to 18.5%.

As to `O=C(Nc1nc2cc(O)c(O)cc2s1)[C@H]1CCCN1S(=O)(=O)c1ccccc1[N+](=O)[O-]` [Compound 14, (R)-N-(5,6-Dihydroxybenzo[d]thiazol-2-yl)-1-((2-nitrophenyl)sulfonyl)pyrrolidine-2-carboxamide], the “ZIKV % inhibition at 50 µM” value in assay [1] is reported as 68.5%. Besides, in assay [2], the inhibition at 50 µM was determined as 13.5%. The inhibition at 25 µM in assay [3] turned out to be 17.7%.

Turning to `O=C(Nc1nc2cc(O)c(O)cc2s1)[C@@H]1CCCN1S(=O)(=O)c1ccc([N+](=O)[O-])cc1` [Compound 7, (S)-N-(5,6-Dihydroxybenzo[d]thiazol-2-yl)-1-((4-nitrophenyl)sulfonyl)pyrrolidine-2-carboxamide, reference compound], the values for the IC50 in assay [4], in assay [5] and in assay [2] were 0.93 µM, 8.58 µM and 5 ± 0.37 µM, respectively. For the same compound, the inhibition at 25 µM in assay [3] (setting [6]) is 43%.

On to `O=C(Nc1nc2cc(O)c(O)cc2s1)[C@H]1CCCN1S(=O)(=O)c1ccc([N+](=O)[O-])cc1` [Compound 16, (R)-N-(5,6-Dihydroxybenzo[d]thiazol-2-yl)-1-((4-nitrophenyl)sulfonyl)pyrrolidine-2-carboxamide], for which the inhibition at 50 µM in assay [2] was found to be 40.7%. Also, in assay [3] (setting [6]), the inhibition at 25 µM was found to be 51.3%.

What is called EC50 is the concentration giving half of the maximal effect. With `O=C(Nc1nc2cc(O)c(O)cc2s1)[C@H]1CCCCN1S(=O)(=O)c1ccc([N+](=O)[O-])cc1` [Compound 28, (R)-N-(5,6-Dihydroxybenzo[d]thiazol-2-yl)-1-((4-nitrophenyl)sulfonyl)piperidine-2-carboxamide], the midpoint of inhibition in assay [2], the IC50, lay at 27 ± 1.6 µM. The EC50 in assay [3] (HeLa reporter cells, 24 h) was found to be 9 ± 0.4 µM.

As to `O=C(Nc1nc2cc(O)c(O)cc2s1)[C@@H]1CCCCN1S(=O)(=O)c1cccc([N+](=O)[O-])c1` [Compound 21, (S)-N-(5,6-Dihydroxybenzo[d]thiazol-2-yl)-1-((3-nitrophenyl)sulfonyl)piperidine-2-carboxamide], the “DENV % inhibition at 50 µM” value in assay [2] is on record as “n.i”. In addition, the EC50 in assay [3] (HeLa reporter cells, 24 h) was determined as 22 ± 1.5 µM.

`O=C(Nc1nc2cc(O)c(O)cc2s1)[C@H]1CCCCN1S(=O)(=O)c1ccc(C(F)(F)F)cc1` [Compound 25]: the “ZIKV % inhibition at 50 µM” value in assay [1] is 48.4%. For the same compound, the IC50 in assay [2] came out at 22.3 ± 1.4 µM. Further, in assay [3] (setting [6]), the inhibition at 25 µM was determined as 38%.

In the case of `O=C(Nc1nc2cc(O)c(O)cc2s1)[C@@H]1CCCCN1S(=O)(=O)c1ccc([N+](=O)[O-])cc1` [Compound 22, (S)-N-(5,6-Dihydroxybenzo[d]thiazol-2-yl)-1-((4-nitrophenyl)sulfonyl)piperidine-2-carboxamide], the inhibition at 50 µM in assay [2] is 59.8%. Moreover, in assay [3] (HeLa reporter cells, 24 h), the EC50 was 13.4 ± 1.2 µM.

As to `O=C(Nc1nc2cc(O)c(O)cc2s1)[C@@H]1CCCN1S(=O)(=O)c1ccc(C(F)(F)F)cc1` [Compound 4], the “ZIKV % inhibition at 50 µM” value in assay [1] is 35.4%. In addition, the IC50 in assay [2] is 5.6 ± 0.39 µM. In addition, in assay [3] (setting [6]), the inhibition at 25 µM amounted to 19.5%.

As to “(S)-N-(5,6-Dihydroxybenzo[d]thiazol-2-yl)-1-(4(trifluoromethyl)benzoyl)pyrrolidine-2-carboxamide [Compound 10]”, the “ZIKV % inhibition at 50 µM” value in assay [1] was 39.2%. In addition, in assay [2], the “DENV % inhibition at 50 µM” value worked out at 16.8%. In addition, the “DENV2 proHeLa % inhibition at 25 µM” value in assay [3] (setting [6]) was found to be 15.4%.

As to `O=C(Nc1nc2cc(O)c(O)cc2s1)[C@@H]1CCCN1S(=O)(=O)c1ccccc1C(F)(F)F` [Compound 2], the “ZIKV % inhibition at 50 µM” value in assay [1] is reported as 49.6%. Besides, the IC50 in assay [2] stood at 5.1 ± 0.29 µM. In assay [3] (setting [6]), the inhibition at 25 µM turned out to be 27.7%.

In the case of `O=C(Nc1nc2cc(O)c(O)cc2s1)[C@@H]1CCCN1S(=O)(=O)c1cccc(C(F)(F)F)c1` [Compound 3], the “ZIKV % inhibition at 50 µM” value in assay [1] is 36.6%. In addition, in assay [2], half-maximal inhibition (IC50) was put at 5 ± 0.29 µM. In addition, the inhibition at 25 µM in assay [3] (setting [6]) was 46.6%.

Consider `O=C(Nc1nc2cc(O)c(O)cc2s1)[C@@H]1CCCCN1S(=O)(=O)c1ccccc1[N+](=O)[O-]` [Compound 20, (S)-N-(5,6-Dihydroxybenzo[d]thiazol-2-yl)-1-((2-nitrophenyl)sulfonyl)piperidine-2-carboxamide], for which, in assay [2], the inhibition at 50 µM is 29.6%. Further, the inhibition at 25 µM in assay [3] (setting [6]) stood at 31.4%.

As for `O=C(Nc1nc2cc(O)c(O)cc2s1)[C@@H]1CCCCN1S(=O)(=O)c1cccc(C(F)(F)F)c1` [Compound 18, (S)-N-(5,6-Dihydroxybenzo[d]thiazol-2-yl)-1-((3-(trifluoromethyl)phenyl)sulfonyl)piperidine-2-carboxamide], the “ZIKV % inhibition at 50 µM” value in assay [1] came to 42.2%. Also, in assay [2], the inhibition at 50 µM was 55.9%. Moreover, the EC50 in assay [3] (HeLa reporter cells, 24 h) was found to be 12.8 ± 0.99 µM.

As to `O=C(Nc1nc2cc(O)c(O)cc2s1)[C@H]1CCCN1S(=O)(=O)c1cccc([N+](=O)[O-])c1` [Compound 15, (R)-N-(5,6-Dihydroxybenzo[d]thiazol-2-yl)-1-((3-nitrophenyl)sulfonyl)pyrrolidine-2-carboxamide], in assay [1], the “ZIKV % inhibition at 50 µM” value came out at 54.6%. In addition, the inhibition at 50 µM in assay [2] turned out to be 16.9%. Further, the inhibition at 25 µM in assay [3] (setting [6]) was 26.9%.

In assay [2], `O=C(Nc1nc2cc(O)c(O)cc2s1)[C@H]1CCCCN1S(=O)(=O)c1cccc([N+](=O)[O-])c1` [Compound 27, (R)-N-(5,6-Dihydroxybenzo[d]thiazol-2-yl)-1-((3-nitrophenyl)sulfonyl)piperidine-2-carboxamide] had an IC50 of 35 ± 2.1 µM. For the same compound, the EC50 in assay [3] (HeLa reporter cells, 24 h) was 5.1 ± 0.53 µM.

With `O=C(Nc1nc2cc(O)c(O)cc2s1)[C@@H]1CCCCN1S(=O)(=O)c1ccc(C(F)(F)F)cc1` [Compound 19], the inhibition at 50 µM in assay [2] is 51.3%. Moreover, the EC50 in assay [3] (HeLa reporter cells, 24 h) was determined as 20.3 ± 1.5 µM.

For `O=C(Nc1nc2cc(O)c(O)cc2s1)[C@@H]1CCCCN1S(=O)(=O)c1ccccc1C(F)(F)F` [Compound 17, (S)-N-(5,6-Dihydroxybenzo[d]thiazol-2-yl)-1-((2-(trifluoromethyl)phenyl)sulfonyl)piperidine-2-carboxamide], the “ZIKV % inhibition at 50 µM” value in assay [1] worked out at 57.2%. Also, the inhibition at 50 µM in assay [2] worked out at 58.7%. The inhibition at 25 µM in assay [3] (setting [6]) was determined as 41.7%.

Consider `O=C(Nc1nc2cc(O)c(O)cc2s1)[C@@H]1CCCN1S(=O)(=O)c1cccc([N+](=O)[O-])c1` [Compound 6, (S)-N-(5,6-Dihydroxybenzo[d]thiazol-2-yl)-1-((3-nitrophenyl)sulfonyl)pyrrolidine-2-carboxamide], for which, in assay [2], the IC50 came out at 6.4 ± 0.52 µM. Besides, the inhibition at 25 µM in assay [3] (setting [6]) was found to be 23.5%.

For the compound “(S)-N-(5,6-Dihydroxybenzo[d]thiazol-2-yl)-1-(2-(trifluoromethyl)benzoyl)pyrrolidine-2-carboxamide [Compound 8]”, the “ZIKV % inhibition at 50 µM” value in assay [1] is “n.i”. Further, in assay [2], the “DENV % inhibition at 50 µM” value is “n.i”. In addition, the “DENV2 proHeLa % inhibition at 25 µM” value in assay [3] (setting [6]) is “n.i”.

For `O=C(Nc1nc2cc(O)c(O)cc2s1)[C@H]1CCCCN1S(=O)(=O)c1cccc(C(F)(F)F)c1` [Compound 24, (R)-N-(5,6-Dihydroxybenzo[d]thiazol-2-yl)-1-((3-(trifluoromethyl)phenyl)sulfonyl)piperidine-2-carboxamide], the “ZIKV % inhibition at 50 µM” value in assay [1] is 34.5%. Further, inhibition in assay [2] was half-maximal at 30.8 ± 1.7 µM (IC50). Besides, the EC50 in assay [3] (HeLa reporter cells, 24 h) was determined as 5.2 ± 0.43 µM.

`O=C(Nc1nc2cc(O)c(O)cc2s1)[C@@H]1CCCN1S(=O)(=O)c1ccccc1[N+](=O)[O-]` [Compound 5, (S)-N-(5,6-Dihydroxybenzo[d]thiazol-2-yl)-1-((2-nitrophenyl)sulfonyl)pyrrolidine-2-carboxamide]: in assay [2], the IC50 was determined as 8 ± 0.52 µM. Further, the inhibition at 25 µM in assay [3] (setting [6]) stood at 18.5%.

Consider “(S)-N-(5,6-Dihydroxybenzo[d]thiazol-2-yl)-1-(3-(trifluoromethyl)benzoyl)pyrrolidine-2-carboxamide [Compound 9]”, for which the “ZIKV % inhibition at 50 µM” value in assay [1] amounted to 56.5%. For the same compound, in assay [2], the “DENV % inhibition at 50 µM” value stood at 55.9%. The “DENV2 proHeLa % inhibition at 25 µM” value in assay [3] (setting [6]) is recorded as 42.2%.

`O=C(Nc1nc2cc(O)c(O)cc2s1)[C@H]1CCCCN1S(=O)(=O)c1ccccc1[N+](=O)[O-]` [Compound 26, (R)-N-(5,6-Dihydroxybenzo[d]thiazol-2-yl)-1-((2-nitrophenyl)sulfonyl)piperidine-2-carboxamide]: the IC50 in assay [2] was 38.9 ± 4 µM. Moreover, the inhibition at 25 µM in assay [3] (setting [6]) worked out at 9.5%.
